The experiment has as its target T1, Human SGLT3 (Homo sapiens, UniProt Q9NY91).
T1 construct: expressed in transfected cells; host or cells: oocytes (from Nasco), injected with mRNA
T1 sequence (Q9NY91 1-659): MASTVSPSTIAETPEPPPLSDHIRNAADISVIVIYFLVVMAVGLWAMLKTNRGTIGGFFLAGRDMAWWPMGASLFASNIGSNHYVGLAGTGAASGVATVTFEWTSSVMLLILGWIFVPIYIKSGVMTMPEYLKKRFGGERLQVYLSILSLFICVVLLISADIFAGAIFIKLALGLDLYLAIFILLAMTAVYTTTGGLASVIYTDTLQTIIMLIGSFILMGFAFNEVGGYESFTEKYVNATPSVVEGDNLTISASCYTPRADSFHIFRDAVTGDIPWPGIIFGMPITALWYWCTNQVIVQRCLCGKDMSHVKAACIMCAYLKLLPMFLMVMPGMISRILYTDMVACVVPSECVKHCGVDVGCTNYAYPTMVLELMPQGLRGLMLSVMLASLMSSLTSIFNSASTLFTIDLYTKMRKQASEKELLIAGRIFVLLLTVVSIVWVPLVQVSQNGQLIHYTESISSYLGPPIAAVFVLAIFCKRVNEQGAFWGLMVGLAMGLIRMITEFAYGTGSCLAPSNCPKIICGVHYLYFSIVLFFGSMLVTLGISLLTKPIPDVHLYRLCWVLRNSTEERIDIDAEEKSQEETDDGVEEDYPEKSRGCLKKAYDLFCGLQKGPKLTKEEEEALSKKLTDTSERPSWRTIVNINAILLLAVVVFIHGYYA
The experiment is described as follows: Two-electrode voltage clamp recording of oocytes expressing human SGLT3 (DNJ-induced currents). Type of experiment: cell-based. The conditions noted are these: 3 mM. As for the experimental part: Oocytes were obtained from Nasco (Fort Atkinson, Wisconsin, USA). Stage V–VI oocytes were injected with 50 nl of either human SGLT3 mRNA (at 1 ng/nl) or distilled water (control) and incubated at 18°C in a calcium-free solution (92 mM NaCl, 2 mM KCl, 1 mM MgCl2, 5 mM HEPES, 0.05 mg/ml gentamicin at pH 7.5) for 4–6 days before recording. The extracellular recording solution contained 92 mM NaCl, 2 mM KCl, 1.8 mM CaCl2, 1 mM MgCl2, and 5 mM HEPES at pH 7.5. Injected oocytes were impaled with 2 microelectrodes filled with 3 M KCl (resistance of ∼0.5–3 MΩ) and voltage clamped to −120 mV, at which continuous recordings were made (filtered at 5 kHz and sampled at 625 Hz). To establish the baseline in the absence of agonist, oocytes were first perfused for 85 seconds with a control buffer (92 mM NaCl, 2 mM KCl, 1.8 mM CaCl2, 1 mM MgCl2, 5 mM HEPES at pH 7.5). […] Finally, phlorizin (3 mM) was applied in the presence of 50 µM DNJ for 160 seconds. All experiments were performed at 22°C. Currents in the presence of 50 µM DNJ were subtracted from leak currents (currents in control buffer alone) to obtain DNJ-induced currents (IDNJ). Effects of compounds were calculated as: % Inhibition = 100×(IDNJ−Icmpd)/IDNJ, where Icmpd is the DNJ-induced and leak-subtracted current in the presence of a compound or DMSO. Due to lack of effect at the highest dose tested, a dose-response relationship was not examined.
(Two-electrode voltage clamp is typically applied to oocytes expressing channels or transporters.)

Usually inhibition stands for the change of the read-out against control, counted positive when it falls. A high value points to a response far below the control.

`O=C(CCc1ccc(O)cc1)c1c(O)cc(O)cc1O[C@@H]1O[C@H](CO)[C@@H](O)[C@H](O)[C@H]1O` [phlorizin, reference compound] showed an inhibition at 3000 µM (SGLT3-injected oocytes, 50 µM DNJ, n = 14, P<0.05) of 73.5 ± 4.2%. The “effect on currents in sham-injected oocytes” value (sham (water)-injected oocytes, in the presence of 50 µM DNJ) was “did not affect currents”.
